{"source": "patent US20250052985A1", "about": "“SYSTEM AND METHOD FOR QUANTITATIVE PHASE IMAGING FOR MULTI-PARAMETRIC SCREENING OF TUMOR THERAPY RESPONSE” (UNIVERSITY OF UTAH RESEARCH FOUNDATION, priority 2023, published 2025)", "key": {"BT-474 cells [1]": {"test_system": "BT-474 cells", "test": "cells", "conditions": "for Max Asymptote / Min Asymptote: BT-474, 4-parameter Hill fit of mean SGR vs concentration, one line per replicate; for Hill Slope / log10(EC50): BT-474, Hill fit; for log10(EC50) / EC50: EC50 in μM per Table 1", "excerpt": "(§1) In some embodiments, breast cancer cell lines are imaged, representing diverse clinical subtypes, summarized in Table 2 below, using a QPI microscope (FIG. 1A) based on differential phase contrast (DPC) microscopy and phase reconstruction via a QPI microscope system. DPC is used for image acquisition and phase reconstruction because DPC's flexible design may be customized for high throughput phase measurements. […] As illustrated in the embodiment of FIG. 1A, a QPI microscope system 100 conducts assays in a 96-well plate (e.g., a well-plate 105) with 6-point dose response curves and up to five therapies in triplicate including solvent controls, summarized in Table 4 below. As described below, in reference to FIG. 1A, a growth response of cells is measured noninvasively using QPI via a QPI microscope system 110 before being assayed using a CTG reader 115.\n(§2) FIG. 1B illustrates a timeline plot 200 showing two plates (e.g., two, separate well-plates 105) set up in parallel to measure cell viability. With reference to FIG. 1B, two plates are set-up simultaneously for each experiment. A first plate 205 is incubated for 27 hours (h) post drug exposure prior to CTG analysis (3 h equilibration+24 h of imaging), which measures cell adenosine triphosphate (ATP) content as a surrogate for cell viability. A second plate 210 is imaged for 72 h after 3 h equilibration (e.g., 75 h) and followed by CTG. […] The imaging locations are imaged for 72 h, as shown by images 1700-1715 of FIG. 7.\n(§3) In some embodiments, a dose-dependent change in growth, as indicated by a change in the rate of mass accumulation or loss, is a parameter that can be extracted from QPI dose-response data. […] Individual specific growth rate measurements are indicated by points in the distribution of the graph 1200 of FIG. 2A. Blue is indicative of the DMSO control and red is indicative of doxorubicin. The black outline is a kernel density function fit to the distribution of specific growth rates for each condition (e.g., *p<0.05, **p<0.01). In some embodiments, the average SGR of each condition is fit to a sigmoid dose-response curve using a Hill equation. For example, computed logistic fit parameters using a 4-parameter Hill model via the QPI microscope system 110 for all conditions are summarized in Tables 5-8 below. To determine if there is a response, as illustrated by FIG. 2B, the QPI microscope system 110 tests goodness of fit, adjusts for degrees of freedom using an F-test at significance p<0.01 by comparison to a flat line, as an indicator of no response. For cases with a better fit to the Hill equation, the 4-parameter Hill curve may be used by the QPI microscope system 110 to determine the EC50, a measure of sensitivity to therapy because it represents the effective concentration at which 50% of the cells respond to therapy, as illustrated by FIG. 10. […] A 4-parameter Hill curve is fit to each dose response plot to extract the depth of response and EC50 for each cell/drug pair. A flat line represents no response due to failure of the F-test to reject the null hypothesis that the logistic fit is indistinguishable from a flat line. […] Each color indicates a different drug or therapy used."}, "MCF-7 cells": {"test_system": "MCF-7 cells", "test": "cells", "conditions": "for Hill Slope / log10(EC50): MCF-7, Hill fit", "excerpt": "as §1, §2, §3"}, "BT-474 cells [2]": {"test_system": "BT-474 cells", "test": "CellTiter-Glo (CTG) ATP viability assay, BT-474", "assay_type": "cell-based", "protocol": "(§4) CTG (e.g., read by the CTG reader 115) is a cell viability assay that quantifies the amount of ATP present at the end of an experiment as an indicator of the number of live cells. The electronic controller 155 measures ATP content in each condition as a readout by a luminescent signal, which is normalized by the luminescence of the control (e.g., a control well) to determine cell viability relative to on-plate controls. In some embodiments, the CTG assay is performed by first removing 100 μL of media from each well on the well-plate 105, which is then replaced with an equal amount of CellTiter-Glo reagent (e.g., Promega, G7572). Assayed plates may be shaken at 500 RPM for 20 minutes and allowed to rest for 10 minutes. In some instances, 100 μL of volume from each well is transferred to a white 96-well plate (e.g., Perkin Elmer, 6005680). The electronic controller 155 collects luminescence data from each well using an Envision plate reader (e.g., Perkin Elmer) and normalized against the solvent control to measure ATP content. The electronic controller 155 fits a 4-parameter hill curve to the dose response to determine the EC50 and depth of response."}, "MDA-MB-231 cells": {"test_system": "MDA-MB-231 cells", "test": "CellTiter-Glo (CTG) ATP viability assay, MDA-MB-231", "assay_type": "cell-based", "conditions": "for Min Asymptote: MDA-MB-231, Hill fit of luminescence normalized to solvent control, one line per replicate; for EC50: read-out: log10(EC50) (converted)", "protocol": "as §4"}}, "note": "pEC50: −log10 of the molar value. Several values for one entry are separate records, joined by “and”; a condition that tells them apart may be missing. Equal entries are not always repeated. Where two headings read alike, the source gives them in different places."}
{"smiles": "COc1cccc2c1C(=O)c1c(O)c3c(c(O)c1C2=O)C[C@@](O)(C(=O)CO)C[C@@H]3O[C@H]1C[C@H](N)[C@H](O)[C@H](C)O1", "note": "[Doxorubicin]", "values": [{"measurement": "Max Asymptote", "setting": "BT-474 cells [1]; 24 h QPI", "result": "0.01297 and 0.01051 and 0.00993"}, {"measurement": "Min Asymptote", "setting": "BT-474 cells [1]; 24 h QPI", "result": "−0.001567 and −0.002506 and −0.002371"}, {"measurement": "Hill Slope", "setting": "BT-474 cells [1]; 24 h QPI", "result": "1.5047 and 1.6529 and 1.3096"}, {"measurement": "log10(EC50)", "setting": "BT-474 cells [1]; 24 h QPI", "result": "−0.2827 and −0.2235"}, {"measurement": "Max Asymptote", "setting": "BT-474 cells [1]; 72 h QPI", "result": "−0.00359 and −0.003807 and −0.003696"}, {"measurement": "Min Asymptote", "setting": "BT-474 cells [1]; 72 h QPI", "result": "0.009626 and 0.009175 and 0.009318"}, {"measurement": "Hill Slope", "setting": "BT-474 cells [1]; 72 h QPI", "result": "3.7081 and 4.795 and 3.6266"}, {"measurement": "log10(EC50)", "setting": "BT-474 cells [1]; 72 h QPI", "result": "0.3361 and 0.3186"}, {"measurement": "DoR QPI", "setting": "BT-474 cells [1]; BT-474 cell line, depth of response, QPI", "result": 1.4}, {"measurement": "ToR 20 μM", "setting": "BT-474 cells [1]; BT-474 cell line, time of response at 20 μM", "result": 3.4}, {"measurement": "EC50", "setting": "BT-474 cells [1]; Homo sapiens, BT-474, 24 h, read-out: log10(EC50), 24 h QPI, BT-474, Hill fit (converted)", "result": 1.78, "unit": "µM"}, {"measurement": "EC50", "setting": "BT-474 cells [1]; Homo sapiens, BT-474, 72 h, read-out: log10(EC50), 72 h QPI, BT-474, Hill fit (converted)", "result": 0.475, "unit": "µM"}, {"measurement": "pEC50", "setting": "BT-474 cells [1]; Homo sapiens, BT-474, read-out: EC50, QPI, BT-474 cell line, QPI growth rate", "result": 6.30}, {"measurement": "cluster mass tracked over time", "setting": "BT-474 cells [1]; small cluster of BT-474 cells, 2 μM, 72 h", "result": "losing mass"}, {"measurement": "Max Asymptote", "setting": "MCF-7 cells; 24 h QPI, MCF-7, 4-parameter Hill fit of mean SGR vs concentration, one line per replicate", "result": "0.03024 and 0.03614 (2×)"}, {"measurement": "Hill Slope", "setting": "MCF-7 cells; 24 h QPI", "result": "0.4225 and 0.5056"}, {"measurement": "log10(EC50)", "setting": "MCF-7 cells; 24 h QPI, EC50 in μM per Table 1", "result": 0.2581}, {"measurement": "Min Asymptote", "setting": "MCF-7 cells; 72 h QPI, MCF-7, 4-parameter Hill fit of mean SGR vs concentration, one line per replicate", "result": "0.02487 and 0.02696 and 0.02807"}, {"measurement": "Hill Slope", "setting": "MCF-7 cells; 72 h QPI", "result": "1.1171 and 1.2782 and 1.7872"}, {"measurement": "log10(EC50)", "setting": "MCF-7 cells; 72 h QPI, EC50 in μM per Table 1", "result": "0.7197 and 0.7012"}, {"measurement": "EC50", "setting": "MCF-7 cells; Homo sapiens, MCF7, 72 h, read-out: log10(EC50), 72 h QPI, MCF-7, Hill fit (converted), EC50 in μM per Table 1", "result": 0.235, "unit": "µM"}, {"measurement": "pEC50", "setting": "MCF-7 cells; Homo sapiens, MCF7, read-out: EC50, QPI, MCF-7 cell line, QPI growth rate", "result": 6.70}, {"measurement": "pEC50", "setting": "MCF-7 cells; Homo sapiens, MCF7, read-out: EC50, SD, MCF-7 cell line, EC50 of the standard deviation", "result": 4.96}, {"measurement": "SGR minimum (mean±standard deviation, SD)", "setting": "MCF-7 cells; MCF-7, 20 μM, highest dose tested", "result": "−0.003+0.004 h^−1"}, {"measurement": "DoR QPI", "setting": "MCF-7 cells; MCF-7 cell line, depth of response, QPI", "result": 1.1}, {"measurement": "ToR 20 μM", "setting": "MCF-7 cells; MCF-7 cell line, time of response at 20 μM", "result": "−1.3"}, {"measurement": "Hill Slope", "setting": "BT-474 cells [2]; 72 h CTG, BT-474, Hill fit", "result": "8.999 and 8.652"}, {"measurement": "log10(EC50)", "setting": "BT-474 cells [2]; 72 h CTG, BT-474, Hill fit", "result": 0.3455}, {"measurement": "Min Asymptote", "setting": "BT-474 cells [2]; 72 h CTG, BT-474, Hill fit of luminescence normalized to solvent control, one line per replicate", "result": "0.5407 (2×) and 0.5602"}, {"measurement": "DoR CTG", "setting": "BT-474 cells [2]; BT-474 cell line, depth of response, CellTiter-Glo", "result": 0.5}, {"measurement": "EC50", "setting": "BT-474 cells [2]; Homo sapiens, BT-474, 72 h, 72 h CTG, BT-474, Hill fit, read-out: log10(EC50) (converted)", "result": 434, "unit": "nM"}, {"measurement": "pEC50", "setting": "BT-474 cells [2]; Homo sapiens, BT-474, BT-474 cell line, CellTiter-Glo, read-out: EC50, CTG", "result": 6.40}, {"measurement": "Hill Slope", "setting": "MDA-MB-231 cells; 24 h CTG, MDA-MB-231, Hill fit", "result": 1.125}, {"measurement": "Min Asymptote", "setting": "MDA-MB-231 cells; 24 h CTG", "result": 0.4072}, {"measurement": "Hill Slope", "setting": "MDA-MB-231 cells; 72 h CTG, MDA-MB-231, Hill fit", "result": "0.8064 and 0.7906"}, {"measurement": "log10(EC50)", "setting": "MDA-MB-231 cells; 72 h CTG, MDA-MB-231, Hill fit", "result": 0.5401}, {"measurement": "Min Asymptote", "setting": "MDA-MB-231 cells; 72 h CTG", "result": "0.01711 and 0.03777 (2×)"}, {"measurement": "EC50", "setting": "MDA-MB-231 cells; Homo sapiens, MDA-MB-231, 24 h, 24 h CTG, MDA-MB-231, Hill fit", "result": 1250, "unit": "nM"}, {"measurement": "EC50", "setting": "MDA-MB-231 cells; Homo sapiens, MDA-MB-231, 72 h, 72 h CTG, MDA-MB-231, Hill fit", "result": 204, "unit": "nM"}, {"measurement": "pEC50", "setting": "MDA-MB-231 cells; Homo sapiens, MDA-MB-231, MDA-MB-231 cell line, CellTiter-Glo, read-out: EC50, CTG", "result": 6.52}, {"measurement": "DoR CTG", "setting": "MDA-MB-231 cells; MDA-MB-231 cell line, depth of response, CellTiter-Glo", "result": 1.0}]}
